Experimental data: patent US10176292B2, “STING crystals and modulators” (MEMORIAL SLOAN-KETTERING CANCER CENTER, priority 2013, dated 2019)

How the values were obtained:
[1] = target: hSTING^R232/A162 (Homo sapiens, UniProt Q86WV6, H232R/S162A); assay: ITC binding, hSTING^R232/A162; settings: Protein: 0.08 mM; Ligands: 0.8 mM; 30 mM HEPES, 180 mM NaCl, pH 7.5; 25° C.
[2] = target: T1, hSTING S162I (Homo sapiens, UniProt Q86WV6, S162I); assay: IFN-β luciferase reporter, hSTING S162I; type: cell-based; settings: 75 μg/ml DMXAA (FIG. 14A)
T1 construct: Full-length hSTING (wt and substitutions) and mSTING (wt) constructs were used for this cellular assay; expressed in transfected cells; host or cells: HEK293T
T1 sequence (Q86WV6 whole entry S162I): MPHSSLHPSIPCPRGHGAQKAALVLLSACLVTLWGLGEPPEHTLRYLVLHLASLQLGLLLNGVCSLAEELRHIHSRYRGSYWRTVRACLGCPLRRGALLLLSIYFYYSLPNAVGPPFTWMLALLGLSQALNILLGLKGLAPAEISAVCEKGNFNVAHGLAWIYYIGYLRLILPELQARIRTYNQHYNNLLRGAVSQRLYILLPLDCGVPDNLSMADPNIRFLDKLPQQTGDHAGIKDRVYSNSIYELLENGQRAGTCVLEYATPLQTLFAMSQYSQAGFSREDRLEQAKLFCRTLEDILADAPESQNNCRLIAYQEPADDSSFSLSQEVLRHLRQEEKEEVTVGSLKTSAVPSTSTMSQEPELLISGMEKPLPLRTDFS
Procedure: (§1) Luciferase expression was determined after 12 h. […] Cells were lysed in Passive Lysis Buffer.
(§2) Luciferase assays for DMXAA experiments were performed as described above. Briefly, 3×10^4 293T cells were reverse-transfected with STING constructs (5 ng per 96-well) and reporter constructs (50 ng pIFNβ-Gluc, 10 ng pLenti-EF1-Fluc for normalization, 35 ng pMAX-empty as stuffer, delivered with TransIT-LT1, MirusBio, Madison Wis.). […] 12 hours after stimulation with STING-ligands, cells were resuspended in passive lysis buffer and luciferase activity was determined using the respective substrates Coelenterazine and D-Luciferin (PJK, Kleinblittersdorf, Germany). Gaussia Luciferase values were then normalized to constitutive Firefly Luciferase values (resulting in Relative Light Units, RLU).

[3] = target: T2, hSTING^S162A (Homo sapiens, UniProt Q86WV6, H232R/S162A); assay: Real-time PCR in STING^Gt/Gt BMDCs transduced with hSTING^S162A; type: cell-based; settings: 50 μg/ml DMXAA, 3 hours
T2 construct: expressed in transfected cells; host or cells: bone marrow-derived dendritic cells of STING^Gt/Gt mice, retroviral transduction (pQCXIP-HA)
T2 sequence (Q86WV6 whole entry S162A/H232R): as the sequence (Q86WV6 whole entry S162I) above, with I162A, H232R counted along it
Procedure: (§3) The protocol for generation of bone marrow-derived dendritic cells was described before (Dai et al., 2014). […] BMDCs (1×10^6 cells/well) were infected with retroviruses expressing hSTING (wt and various substitution mutants).
(§4) hSTING cDNAs were cloned into pQCXIP-HA vector. In vitro packaging system was used to generate retroviruses according to protocol (Clontech). BMDCs (1×10^6 cells/well) were seeded into 6-well plates and infected with retroviruses. […] CXCL10 protein level was determined by ELISA.

[4] = target: T3, hSTING^S162A/Q266I (aa 155-341) (Homo sapiens, UniProt Q86WV6, H232R/Q266I/S162A); assay: X-ray crystal structure of DMXAA-hSTING^S162A/Q266I complex (Table 8 coordinates); settings: X-ray refinement (PHENIX) of DMXAA-hSTING^S162A/Q266I complex
T3 construct: His6-SUMO (N, cleaved yes); made in house; host or cells: E. coli BL21 (DE3) RIL, modified pRSFDuet-1 vector
T3 sequence (Q86WV6 155-341 S162A/H232R/Q266I): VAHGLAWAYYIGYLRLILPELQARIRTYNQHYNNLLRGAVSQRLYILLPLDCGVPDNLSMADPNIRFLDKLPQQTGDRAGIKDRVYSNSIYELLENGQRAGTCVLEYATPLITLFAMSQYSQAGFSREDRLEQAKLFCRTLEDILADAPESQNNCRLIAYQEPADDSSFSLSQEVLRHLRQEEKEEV
Procedure: The crystals were generated by sitting drop vapor diffusion method at 20° C., by mixing equal volume reservoir solution with the sample. The detailed conditions are listed below: DMXAA-hSTING^group2: 2 M LiCl, 10% PEG6000, 0.01 M CaCl2, 0.1 M Tris, pH 7.8; DMXAA-hSTING^G230I: 0.2 M Li2SO4, 20% PEG 3350, 0.015 mM CYMAL®-7, 0.1 M Tris, pH 8.1; DMXAA-hSTING^S162A/Q266I: 0.2 M Ca(Ac)2, 15% PEG3000, 0.01 M L-Proline, 0.1 M NaAc, pH 5.1; DMXAA-hSTING^S162A/G230I/Q266I: 0.2 M Ca(Ac)2, 15% PEG3000, 0.1 M LiCl, 0.1 M NaAc, pH 5.1. All structures were solved using PHASER, COOT, PHENIX, and REFMAC programs.
(PDB: 4F5D) as the search model. […] For the cGAMP-STING binary structures, two STING molecules in the STING dimer have equal probability to bind with either G or A moiety of the cGAMP isomers. […] We therefore assigned two conformations with 0.5 occupancy for bound cGAMP isomers.
(PDB: 4LOH) as the search model.
The model building was conducted using the program COOT (Emsley et al., 2010) and structural refinement was conducted using the program REFMAC (Murshudov et al., 1997).

[5] = target: T4, hSTING^S162A/G230I/Q266I (Homo sapiens, UniProt Q86WV6, G230I/H232R/Q266I/S162A); assay: CXCL10 ELISA in STING^Gt/Gt BMDCs transduced with hSTING^S162A/G230I/Q266I; type: cell-based; settings: 50 μg/ml DMXAA, supernatants at 18 h; compared with the other hSTING substituents
T4 sequence (Q86WV6 whole entry S162A/G230I/H232R/Q266I): as the sequence (Q86WV6 whole entry S162I) above, with I162A, G230I, H232R, Q266I counted along it
Procedure: as §3, §4
CXCL10 was measured using the BD Opteia human IP-10 ELISA Set according to manufacturer's recommendations. Murine IFN-α was determined by ELISA using antibody RMMA-1 for capture and rabbit-anti-murine IFN-α polyclonal antibody for detection (PBL Interferon Source, Piscataway, N.J.). Dose-response curves were fitted and EC50 values were determined with Graphpad Prism (Graph Pad Software Inc., San Diego, Calif.).

[6] = target: T5, hSTING S162V (Homo sapiens, UniProt Q86WV6, S162V); assay: IFN-β luciferase reporter, hSTING S162V; type: cell-based; settings: 75 μg/ml DMXAA (FIG. 14A)
T5 construct: Full-length hSTING (wt and substitutions) and mSTING (wt) constructs were used for this cellular assay; expressed in transfected cells; host or cells: HEK293T
T5 sequence (Q86WV6 whole entry S162V): as the sequence (Q86WV6 whole entry S162I) above, with I162V counted along it
Procedure: as §1, §2

[7] = target: T6, hSTING^R232 (Homo sapiens, UniProt Q86WV6, H232R); assay: IFN-β luciferase reporter, HEK293T cells with hSTING (hSTING^R232); type: cell-based; settings: DMXAA added to medium, 12 h
T6 construct: Full-length hSTING (wt and substitutions) and mSTING (wt) constructs were used for this cellular assay; expressed in transfected cells; host or cells: HEK293T
T6 sequence (Q86WV6 whole entry H232R): as the sequence (Q86WV6 whole entry S162I) above, with I162S, H232R counted along it
Procedure: as §1, §2

[8] = target: hSTING^S162A/Q266I (Homo sapiens, UniProt Q86WV6, H232R/Q266I/S162A); assay: IFN-β luciferase reporter, hSTING^S162A/Q266I; type: cell-based; design: expressed in transfected cells; settings: dose-response
Sequence of hSTING^S162A/Q266I (Q86WV6 whole entry S162A/H232R/Q266I): as the sequence (Q86WV6 whole entry S162I) above, with I162A, H232R, Q266I counted along it
Procedure: as §2

[9] = target: T4, hSTING^S162A/G230I/Q266I; assay: Real-time PCR in STING^Gt/Gt BMDCs transduced with hSTING^S162A/G230I/Q266I; type: cell-based; settings: 50 μg/ml DMXAA, 3 hours
Procedure: as §3, §4

[10] = target: T7, hSTING I235L (Homo sapiens, UniProt Q86WV6, H232R/I235L); assay: IFN-β luciferase reporter, hSTING I235L; type: cell-based; settings: 0.18 mM DMXAA, 12 hours
T7 construct: Full-length hSTING (wt and substitutions) and mSTING (wt) constructs were used for this cellular assay; expressed in transfected cells; host or cells: 293T
T7 sequence (Q86WV6 whole entry H232R/I235L): as the sequence (Q86WV6 whole entry S162I) above, with I162S, H232R, I235L counted along it
Procedure: as §2

[11] = tested on: hSTING^group1 (aa 140-379); assay: ITC binding, hSTING^group1; settings: isolated group1 substitutions
[12] = target: T8, hSTING^Q266I (Homo sapiens, UniProt Q86WV6, H232R/Q266I); assay: IFN-β luciferase reporter, hSTING Q266I; type: cell-based; settings: 0.18 mM DMXAA, 12 hours
T8 construct: Full-length hSTING (wt and substitutions) and mSTING (wt) constructs were used for this cellular assay; expressed in transfected cells; host or cells: 293T
T8 sequence (Q86WV6 whole entry H232R/Q266I): as the sequence (Q86WV6 whole entry S162I) above, with I162S, H232R, Q266I counted along it
Procedure: as §2

Sequence of hSTING^R232/A162 (Q86WV6 140-379 S162A/H232R): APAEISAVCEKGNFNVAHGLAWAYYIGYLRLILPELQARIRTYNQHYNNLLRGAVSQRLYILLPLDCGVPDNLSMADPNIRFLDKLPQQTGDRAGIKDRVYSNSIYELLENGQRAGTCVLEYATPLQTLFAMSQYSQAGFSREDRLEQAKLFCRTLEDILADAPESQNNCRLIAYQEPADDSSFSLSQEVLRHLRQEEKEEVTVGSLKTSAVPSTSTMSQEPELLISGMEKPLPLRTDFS

SMILES: Cc1ccc2c(=O)c3cccc(CC(=O)O)c3oc2c1C [DMXAA, 5,6-dimethylxanthenone-4-acetic acid]
- TΔS [1]: +8.65 Kcal/mol
- ΔG [1]: -8.29 kcal/mol
- ΔH [1]: +0.36 Kcal/mol
- IFN induction by DMXAA [2]: not observed
- increases in IFN-β mRNA levels [3]: 2.2 fold
- FREE R VALUE [4]: REMARK 3 FREE R VALUE: 0.2288
- R VALUE (WORKING SET) [4]: REMARK 3 R VALUE (WORKING SET): 0.1826
- RESOLUTION RANGE HIGH (ANGSTROMS) [4]: REMARK 3 RESOLUTION RANGE HIGH (ANGSTROMS): 2.420
- CXCL10 production (ELISA) [5]: highest level of CXCL10 production
- IFN induction by DMXAA [6]: not observed
- IFN-β luciferase reporter response to DMXAA [7]: did not
- DMXAA-induced IFN-β induction [8]: enhanced DMXAA-induced IFN-β induction similar to mSTING
- increases in IFN-β mRNA levels [9]: 4.2 fold
- up-regulation of CXCL10, CCL5 and IL-6 mRNAs [9]: strongest induction among the four mutants
- DMXAA-mediated IFN-β induction [10]: no effects
- binding to DMXAA (ITC) [11]: no detectable binding
- DMXAA-mediated IFN-β induction [12]: conferred DMXAA sensitivity at a level similar to that observed for the S162A substitution
